From patent publication EP4610269A1, “UROKINASE PLASMINOGEN ACTIVATOR SURFACE RECEPTOR (UPAR) LIGANDS FOR DIAGNOSTIC OR THERAPEUTIC USE” (3B Pharmaceuticals GmbH, priority 2024, dated 2025)
pIC50: −log10 of the molar value. Where a SMILES comes first, the peptide text is derived from it. Bridges are numbered along the chain shown (N, C = ends). [ ]: non-standard residue; d: D form. The star is where a group is joined. X3 = NC(=O)[C@H](CCCCNC(=O)CN1CCN(CC(=O)O)CCN(CC(=O)O)CCN(CC(=O)O)CC1)NC(=O)CCC(=O)NCCCOCCOCCOCCCN*; DOTA = O=C(O)CN1CCN(CC(=O)O)CCN(CC(=O)*)CCN(CC(=O)O)CC1; Phe(4-guanidino) = N=C(N)Nc1ccc(C[C@H](N)C(=O)O)cc1; Lys(Me3) = C[N+](C)(C)CCCC[C@H](N)C(=O)O; 2Nal = N[C@@H](Cc1ccc2ccccc2c1)C(=O)O; Hyp = O=C(O)[C@@H]1C[C@@H](O)CN1; Pentanoyl(4-Me) = CC(C)CCC(=O)*; Cit = NC(=O)NCCC[C@H](N)C(=O)O; αMeL = CC(C)C[C@](C)(N)C(=O)O; Butoxycarbonyl = CCCCOC(=O)*; Api = NC1(C(=O)O)CCNCC1; Nva = CCC[C@H](N)C(=O)O; Hexanoyl = CCCCCC(=O)*; Pentanoyl = CCCCC(=O)*

Assays:
human uPAR (uPAR-Fc) = biological target: T1, human uPAR (uPAR-Fc) (Homo sapiens, UniProt Q03405); experiment: Surface plasmon resonance (SPR) assay, single cycle kinetics; format: binding; conditions: pKD category for uPAR SPR activity assay; uPAR-Fc on Protein A-Chip, 25°C; read-out: pKD CAT (converted)
T1 construct: comprising amino acids Leu23-Arg303 according to UniProt entry Q03405.1; purchased R&D Systems 10378-UK-100
Description: Surface plasmon resonance (SPR) is an optical technique used to measure molecular interactions in real time. SPR occur when plane-polarized light hits a metal film under total internal reflection conditions. SPR signal is directly dependent on the refractive index of the medium on the sensor chip. In an SPR experiment, one molecule (i.e. uPAR) is immobilized on a sensor chip and binding to a second molecule (i.e. test compounds) is measured under flow. The binding of the compound on the surface changes the refractive index. In responses the reflection angle changes as compounds bind and dissociate on the immobilized protein on the surface. This response is measured in resonance units (RU). The RUs are proportional to the number of molecules bound to the surface. […] Kinetic binding constants and equilibrium binding constants can be derived from the sensorgrams.
Surface plasmon resonance (SPR) studies were performed using a Biacore™ T200 or S200 SPR system (Cytiva, formerly GE Life Sciences) to assess binding of compounds to recombinant uPAR protein.
In this example recombinant protein comprising the extracellular domains of human uPAR (uPAR-Fc, R&D Systems, CAT 10378-UK-100, comprising amino acids Leu23-Arg303 according to UniProt entry Q03405.1 and Fc region of human IgG1 at the C-terminus) was immobilized on a Protein A-Chip (Cytiva, CAT 29127555) according to the supplier's instructions. uPAR-Fc was diluted in Running Buffer (10 mM HEPES, 150 mM NaCl, 50 µM EDTA, 0.1% DMSO, 0.05% Tween-20, pH 7.4) to a final concentration of 100 nM and then flushed over the Protein A-Chip to immobilized ~2000 RUs.
Stock solutions of test compounds were prepared by dissolving each compound in DMSO. DMSO stock solution were diluted 1: 1000 in Running Buffer without DMSO. Further sequential dilutions were made with Running Buffer containing 0.1% DMSO. SPR binding analyses were performed in Single Cycle Kinetic (SCK) mode at 25°C. Flow cell without immobilized uPAR-Fc served as reference flow cell. The chip was regenerated with 10 mM Glycine, pH 1,5 to remove the uPAR-Fc from the chip surface after each SCK run. After every three SCK measurements, a blank run with Running Buffer instead of test compound was included to correct for baseline drifts (double reference substraction method). Table 11: SPR protocol steps for SCK with uPAR-Fc immobilized on a Protein A-Chip.
For each test compound, SPR raw data sensorgrams were recorded using the Biacore™ T200 or S200 control software. Sensorgrams were processed and analyzed with the Biacore™ Insight Evaluation software. […] The reference subtracted sensorgram for each test compound was further corrected for baseline drift by subtracting the sensorgram of a reference subtracted blank run (Running Buffer only). The dissociation constant (KD) was calculated from the double reference subtracted sensorgrams using the 1:1 Langmuir binding model. The pKD value (negative decadic logarithm of dissociation constant) was calculated using Microsoft Excel.

[1] = biological target: T2, uPAR-expressing HEC-265 human endometrial adenocarcinoma cells (Homo sapiens, UniProt Q03405); experiment: Competitive FACS binding assay; conditions: pIC50 category of FACS binding
T2 construct: Cell surface uPAR-expressing HEC-265 human endometrial adenocarcinoma cells; host or cells: HEC-265
Description: In order to determine binding of compounds according to the present invention to uPAR-expressing cells, a competitive FACS binding assay was established.
Cell surface uPAR-expressing HEC-265 human endometrial adenocarcinoma cells (Japanese Collection of Research Bioresources, #JCRB1142) were cultured in MEM Eagle with stable glutamine (Pan Biotech, #P04-09500) including 15% fetal bovine serum (Pan Biotech, #P30-3306) and 100 U/ml penicillin and 100 µg/mL streptomycin (Pan Biotech, #P06-07100). Cells were detached with Cell Dissociation Buffer (Thermo Scientific, #13151014) and washed in FACS buffer (PBS (Pan Biotech, #P04-36500) including 1% BSA (SeraCare, #AP-4510-80). Cells were diluted in FACS buffer to a final concentration of 500.000 cells per ml and 200 µl of the cell suspension are transferred to a u-shaped non-binding 96-well plate (Greiner Bio-One, #650901).
For IC50 determination, cells were incubated with 10 nM Bio--Ttds--Ttds--Ttds--Ttds-D-Cha-FsrYLWS-NH2) in the presence of increasing concentrations of non-labeled test compounds at 4°C for 1 hour. Cells were washed twice in FACS buffer. An additional incubation step with 1 µg/mL APC-Streptavidin (Miltenyi; #130-106-791) in 50 µL FACS buffer for 30 minutes on ice was performed followed by two washes with FACS buffer. Cells were resuspended in 200 µl FACS buffer and analyzed in an Attune NxT flow cytometer. Median fluorescence intensities (APC channel) were calculated by Attune NxT software and plotted against peptide concentrations. Four parameter logistic (4PL) curve fitting and pIC50 calculations were performed using ActivityBase software.

T2 sequence (Q03405 23-335): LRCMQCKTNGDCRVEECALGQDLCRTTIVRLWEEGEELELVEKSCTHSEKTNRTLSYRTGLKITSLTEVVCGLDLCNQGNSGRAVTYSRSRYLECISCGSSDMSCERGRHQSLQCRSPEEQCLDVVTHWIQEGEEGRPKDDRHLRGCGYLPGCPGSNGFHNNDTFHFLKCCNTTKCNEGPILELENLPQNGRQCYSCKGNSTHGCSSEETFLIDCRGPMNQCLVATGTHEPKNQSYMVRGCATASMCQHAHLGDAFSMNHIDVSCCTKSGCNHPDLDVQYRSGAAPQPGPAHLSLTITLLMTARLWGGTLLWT
T1 sequence (Q03405 23-303): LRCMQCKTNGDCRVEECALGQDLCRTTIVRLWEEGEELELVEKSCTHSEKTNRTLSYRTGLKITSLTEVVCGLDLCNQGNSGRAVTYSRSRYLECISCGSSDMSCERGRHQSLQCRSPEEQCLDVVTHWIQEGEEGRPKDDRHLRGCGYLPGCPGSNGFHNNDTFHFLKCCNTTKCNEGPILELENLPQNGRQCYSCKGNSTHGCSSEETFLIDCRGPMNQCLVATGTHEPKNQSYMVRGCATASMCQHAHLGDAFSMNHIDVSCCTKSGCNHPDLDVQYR

Row | Kd (human uPAR (uPAR-Fc)) [nM] | pIC50 [1] | Structure (SMILES)
1 | < 1.58 | ≥ 8.00 | CC[C@H](C)[C@@H]1NC(=O)[C@H](CCCCNC(=O)CN2CCN(CC(=O)O)CCN(CC(=O)O)CCN(CC(=O)O)CC2)NC(=O)[C@@H]2CCCN2C(=O)[C@H](Cc2ccccc2)NC(=O)[C@H](Cc2ccc(O)cc2)NC(=O)[C@H](CCC(N)=O)NC(=O)[C@H](CCCNC(N)=O)NC(=O)[C@@H](NC(=O)CCC(C)C)CSSC[C@@H](C(N)=O)NC(=O)[C@H](CC(C)C)NC1=O [UPAR-145, iHex-[Cys-Cit-Gln-Tyr-Phe-Pro-Lys(DOTA)-Ile-Leu-Cys]-NH2] ({Pentanoyl(4-Me)}-C[Cit]QYFPK(DOTA)ILC-NH2; disulfide 1-10)
2 | 1.58 to 10 | 7.50 to 7.90 | CCCCC(=O)N[C@H]1CSSC[C@@H](C(=O)NCC)NC(=O)[C@H](CCC)NC(=O)[C@H]([C@@H](C)CC)NC(=O)[C@@H]2C[C@@H](O)CN2C(=O)[C@@H]2CCCN2C(=O)[C@H](Cc2ccccc2)NC(=O)[C@H](Cc2ccc(O)cc2)NC(=O)[C@H](CCC(N)=O)NC(=O)[C@H](CCCNC(N)=O)NC1=O [UPAR-146, Pent-[Cys-Cit-Gln-Tyr-Phe-Pro-Hyp-Ile-Nva-Cys]-NHEt] (Pentanoyl-C[Cit]QYFP[Hyp]I[Nva]C-NHEt; disulfide 1-10)
3 | 10 to 100 | 7.50 to 7.90 | CC[C@H](C)[C@@H]1NC(=O)[C@@H](C)NC(=O)[C@@H]2CCCN2C(=O)[C@H](Cc2ccc3ccccc3c2)NC(=O)[C@H](Cc2ccc(O)cc2)NC(=O)[C@H](CCC(N)=O)NC(=O)[C@H](CCCNC(N)=O)NC(=O)[C@@H](NC(=O)CCC(C)C)CSSC[C@@H](C(N)=O)NC(=O)[C@H](CC(C)C)NC1=O [UPAR-147, iHex-[Cys-Cit-Gln-Tyr-2Ni-Pro-ala-Ile-Leu-Cys]-NH2] ({Pentanoyl(4-Me)}-C[Cit]QY[2Nal]P[dA]ILC-NH2; disulfide 1-10)
4 | < 1.58 | ≥ 8.00 | CCCCC(=O)N[C@H]1CSSC[C@@H](C(N)=O)NC(=O)[C@H](CCC)NC(=O)[C@H]([C@@H](C)CC)NC(=O)[C@@H]2C[C@@H](O)CN2C(=O)[C@@H]2CCCN2C(=O)[C@H](Cc2ccccc2)NC(=O)[C@H](Cc2ccc(NC(=N)N)cc2)NC(=O)[C@H](CCCCNC(=O)CN2CCN(CC(=O)O)CCN(CC(=O)O)CCN(CC(=O)O)CC2)NC(=O)[C@H](CCCNC(N)=O)NC1=O [UPAR-149, Pent-[Cys-Cit-Lys(DOTA)-Guf-Phe-Pro-Hyp-Ile-Nva-Cys]-NH2] (Pentanoyl-C[Cit]K(DOTA)[Phe(4-guanidino)]FP[Hyp]I[Nva]C-NH2; disulfide 1-10)
5 | 1.58 to 10 | 7.00 to 7.40 | CCCCCC(=O)N[C@@H](CC(=O)O)C(=O)N[C@@H](CC(C)C)C(=O)N[C@H]1CSSC[C@@H](C(=O)NCCCOCCOCCOCCCNC(=O)CCC(=O)N[C@@H](CCCCNC(=O)CN2CCN(CC(=O)O)CCN(CC(=O)O)CCN(CC(=O)O)CC2)C(N)=O)NC(=O)[C@H](CC(C)C)NC(=O)[C@H]([C@@H](C)CC)NC(=O)[C@H](C)NC(=O)[C@@H]2CCCN2C(=O)[C@H](Cc2ccccc2)NC(=O)[C@H](Cc2ccc(O)cc2)NC(=O)[C@H](CCSC)NC(=O)[C@H](CCCNC(=N)N)NC1=O [UPAR-150, Hex-Asp-Leu-[Cys-Arg-Met-Tyr-Phe-Pro-Ala-Ile-Leu-Cys]-Ttds-Lys(DOTA)-NH2] (Hexanoyl-DLCRMYFPAILC-X3; disulfide 3-12)
6 | < 1.58 | ≥ 8.00 | CC[C@H](C)[C@@H]1NC(=O)C2(CCN(C(=O)CN3CCN(CC(=O)O)CCN(CC(=O)O)CCN(CC(=O)O)CC3)CC2)NC(=O)[C@@H]2CCCN2C(=O)[C@H](Cc2ccccc2)NC(=O)[C@H](Cc2ccc(O)cc2)NC(=O)[C@H](CCC(N)=O)NC(=O)[C@H](CCCNC(=N)N)NC(=O)[C@@H](NC(=O)CCC(C)C)CSSC[C@@H](C(N)=O)NC(=O)[C@H](CC(C)C)NC1=O [UPAR-152, iHex-[Cys-Arg-Gln-Tyr-Phe-Pro-Apc(DOTA)-Ile-Leu-Cys]-NH2] ({Pentanoyl(4-Me)}-CRQYFP[Api](DOTA)ILC-NH2; disulfide 1-10)
7 | < 1.58 | ≥ 8.00 | CCCCC(=O)N[C@H]1CSSC[C@@H](C(N)=O)NC(=O)[C@H](CCC)NC(=O)[C@H]([C@@H](C)CC)NC(=O)[C@@H]2C[C@@H](O)CN2C(=O)[C@@H]2CCCN2C(=O)[C@H](Cc2ccccc2)NC(=O)[C@H](Cc2ccc(O)cc2)NC(=O)[C@H](CCCCNC(=O)CN2CCN(CC(=O)O)CCN(CC(=O)O)CCN(CC(=O)O)CC2)NC(=O)[C@H](CCCC[N+](C)(C)C)NC1=O [UPAR-153, Pent-[Cys-KMe3-Lys(DOTA)-Tyr-Phe-Pro-Hyp-Ile-Nva-Cys]-NH2] (Pentanoyl-C[Lys(Me3)]K(DOTA)YFP[Hyp]I[Nva]C-NH2; disulfide 1-10)
8 | < 1.58 | ≥ 8.00 | CCCCC(=O)N[C@H]1CSSC[C@@H](C(N)=O)NC(=O)[C@H](CCC)NC(=O)[C@H]([C@@H](C)CC)NC(=O)[C@H](CO)NC(=O)[C@@H]2CCCN2C(=O)[C@H](Cc2ccccc2)NC(=O)[C@H](Cc2ccc(O)cc2)NC(=O)[C@H](CCC(N)=O)NC(=O)[C@H](CCCNC(=N)N)NC1=O [UPAR-154, Pent-[Cys-Arg-Gln-Tyr-Phe-Pro-Ser-Ile-Nva-Cys]-NH2] (Pentanoyl-CRQYFPSI[Nva]C-NH2; disulfide 1-10)
9 | 1.58 to 10 | 7.50 to 7.90 | CCCCC(=O)N[C@H]1CSSC[C@@H](C(N)=O)NC(=O)[C@](C)(CC(C)C)NC(=O)[C@H]([C@@H](C)CC)NC(=O)[C@@H]2C[C@@H](O)CN2C(=O)[C@@H]2CCCN2C(=O)[C@H](Cc2ccccc2)NC(=O)[C@H](Cc2ccc(O)cc2)NC(=O)[C@H](CCC(N)=O)NC(=O)[C@H](CCCNC(=N)N)NC1=O [UPAR-156, Pent-[Cys-Arg-Gln-Tyr-Phe-Pro-Hyp-Ile-Aml-Cys]-NH2] (Pentanoyl-CRQYFP[Hyp]I[αMeL]C-NH2; disulfide 1-10)
10 | < 1.58 | ≥ 8.00 | CC[C@H](C)[C@@H]1NC(=O)[C@@H](C)NC(=O)[C@@H]2CCCN2C(=O)[C@H](Cc2ccccc2)NC(=O)[C@H](Cc2ccc(O)cc2)NC(=O)[C@H](CCC(N)=O)NC(=O)[C@H](CCCCNC(=O)CN2CCN(CC(=O)O)CCN(CC(=O)O)CCN(CC(=O)O)CC2)NC(=O)[C@@H](NC(=O)CCC(C)C)CSSC[C@@H](C(N)=O)NC(=O)[C@H](CC(C)C)NC1=O [UPAR-157, iHex-[Cys-Lys(DOTA)-Gln-Tyr-Phe-Pro-ala-Ile-Leu-Cys]-NH2] ({Pentanoyl(4-Me)}-CK(DOTA)QYFP[dA]ILC-NH2; disulfide 1-10)

Row | Structure (SMILES) | Kd (human uPAR (uPAR-Fc)) [nM] | pIC50 [1]
11 | CCCCOC(=O)N[C@H]1CSSC[C@@H](C(N)=O)NC(=O)[C@H](CC(C)C)NC(=O)[C@H]([C@@H](C)CC)NC(=O)[C@@H](C)NC(=O)[C@@H]2CCCN2C(=O)[C@H](Cc2ccccc2)NC(=O)[C@H](Cc2ccc(O)cc2)NC(=O)[C@H](CCC(N)=O)NC(=O)[C@H](CCCNC(N)=O)NC1=O [UPAR-155, Butoc-[Cys-Cit-Gln-Tyr-Phe-Pro-ala-Ile-Leu-Cys]-NH2] (Butoxycarbonyl-C[Cit]QYFP[dA]ILC-NH2; disulfide 1-10) | < 1.58 | ≥ 8.00
